Assays:
Type in all cases: functional, cell-based
P2Y purinoceptor 6 = P2Y purinoceptor 6 (Homo sapiens, UniProt Q15077); test: Antagonist activity at human P2Y6R expressed in HEK293 cells assessed as inhibition of UDP-induced IP3 production preincubated for 0.5 hrs followed by UDP stimulation and measured after 12 hrs by ELISA analysis
P2Y purinoceptor 12 = P2Y purinoceptor 12 (Homo sapiens, UniProt Q9H244); test: Antagonist activity at human P2Y12R expressed in HEK293 cells assessed as inhibition of MeSADP-induced cAMP production preincubated for 0.5 hrs followed by MeSADP stimulation by cAMP-glo analysis
P2Y purinoceptor 12, sequence (Q9H244 whole entry): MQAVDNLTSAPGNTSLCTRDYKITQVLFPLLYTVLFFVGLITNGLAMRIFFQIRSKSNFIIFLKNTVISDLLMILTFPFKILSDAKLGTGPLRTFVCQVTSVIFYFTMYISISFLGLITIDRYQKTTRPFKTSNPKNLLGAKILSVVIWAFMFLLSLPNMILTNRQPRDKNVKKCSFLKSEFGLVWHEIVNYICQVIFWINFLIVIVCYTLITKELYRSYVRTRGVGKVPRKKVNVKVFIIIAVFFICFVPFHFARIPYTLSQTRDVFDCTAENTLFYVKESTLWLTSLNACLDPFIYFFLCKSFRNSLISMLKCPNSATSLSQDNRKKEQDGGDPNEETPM

P2Y purinoceptor 14 = biological target: T1, P2Y purinoceptor 14 (Homo sapiens, UniProt Q15391); test: Antagonist activity at human P2Y14R expressed in HEK293 cells assessed as inhibition of UDPG-induced cAMP production preincubated for 0.5 hrs followed by UDPG stimulation by cAMP-glo analysis
T1 sequence (Q15391 whole entry): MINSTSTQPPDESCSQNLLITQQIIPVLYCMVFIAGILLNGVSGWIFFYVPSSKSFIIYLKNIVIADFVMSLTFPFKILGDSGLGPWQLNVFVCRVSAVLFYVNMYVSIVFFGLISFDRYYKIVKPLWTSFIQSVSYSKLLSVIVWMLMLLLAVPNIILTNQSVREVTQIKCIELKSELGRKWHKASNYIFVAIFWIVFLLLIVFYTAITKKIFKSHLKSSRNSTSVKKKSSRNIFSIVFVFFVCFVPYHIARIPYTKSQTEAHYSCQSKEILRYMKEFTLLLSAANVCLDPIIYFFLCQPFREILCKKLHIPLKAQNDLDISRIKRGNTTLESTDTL

P2Y purinoceptor 6, sequence (Q15077 whole entry): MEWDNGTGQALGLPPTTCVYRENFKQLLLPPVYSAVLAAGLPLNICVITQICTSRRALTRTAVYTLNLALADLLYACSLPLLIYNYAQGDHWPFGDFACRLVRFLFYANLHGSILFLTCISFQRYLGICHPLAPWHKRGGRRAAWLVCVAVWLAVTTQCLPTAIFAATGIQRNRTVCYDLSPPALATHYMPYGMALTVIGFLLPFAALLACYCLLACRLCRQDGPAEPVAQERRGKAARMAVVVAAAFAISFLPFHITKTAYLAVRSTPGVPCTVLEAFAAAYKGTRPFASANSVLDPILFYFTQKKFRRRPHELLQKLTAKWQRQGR

SMILES	IC50 (P2Y purinoceptor 6) [nM]	further results
CCCSc1nc(N[C@@H]2C[C@H]2c2ccc(F)c(F)c2)c2nnn([C@@H]3C[C@H](OCCO)[C@@H](O)[C@H]3O)c2n1 [TICAGRELOR]		IC50 (P2Y purinoceptor 12): 1400 nM
CC(C)(C)n1nc(-c2nc3cc(OC(F)(F)F)ccc3[nH]2)cc1-c1ccco1	128	
CC(C)(C)n1nc(-c2nc3ccccc3s2)cc1-c1ccccc1	314	
O=C(O)c1cc(-c2ccccc2C2CCNCC2)c2ccc(-c3ccc(C(F)(F)F)cc3)cc2c1		IC50 (P2Y purinoceptor 14): 5210 nM
O=C(O)CCC(=O)N1N=C(c2nc3cc(Cl)ccc3[nH]2)CC1c1ccco1 (centres undefined)	457	
Cc1ccc2cc(C3CC(c4ccco4)=NN3C(=O)CCC(=O)O)c(Cl)nc2c1 (centres undefined)	126	
CC(C)(C)n1nc(-c2nc3ccccc3o2)cc1-c1ccccc1	173	

More lines, in order of falling IC50 (P2Y purinoceptor 6), values ahead:

IC50 (P2Y purinoceptor 6) [nM]	SMILES	further results
87.8	CC(C)n1nc(-c2nc3ccccc3s2)cc1-c1ccccc1	
72.9	Cc1ccc2nc(-c3cc(-c4ccco4)n(C(C)(C)C)n3)oc2c1	
49.2	CC(C)(C)n1nc(-c2nc3ccccc3[nH]2)cc1-c1ccccc1	
45.7	CC(C)(C)n1nc(-c2nc3cc(Br)ccc3[nH]2)cc1-c1ccco1	
30.8	CC(C)(C)n1nc(-c2nc3ccccc3o2)cc1-c1ccco1	
27.5	S=C=Nc1cccc(NC(=S)NCCCCNC(=S)Nc2cccc(N=C=S)c2)c1	
12.6	CC(C)(C)n1nc(-c2nc3cc([N+](=O)[O-])ccc3[nH]2)cc1-c1ccco1	

Reference: ChEMBL document CHEMBL5380866, “Discovery of Selective P2Y6R Antagonists with High Affinity and In Vivo Efficacy for Inflammatory Disease Therapy” (J Med Chem, 2023)
